In article PMC5287478, “Quantitative Affinity Determination by Fluorescence Anisotropy Measurements of Individual Nanoliter Droplets” (Analytical Chemistry, 2017):

Columns and labels:
HumRadA18 = biological target: T1, HumRadA18 (Pyrococcus furiosus, UniProt O74036, D220A/D267M/E219S/H199N/H264F/I169M/I200V/I222M/K198D/K221M/K223V/K263R/L213Q/L225S/L274E/Q216Y/V168A/V202Y/V215L/V232Y/W170Y/Y201A/Y275F); assay: Competition assay with BRC4^fl in nanoliter droplets; type: binding
T1 construct: made in house; host or cells: E. coli BL21(DE3) pUBS520, pBAT plasmid

RAD51 = conditions: 30–35 amino acid peptide corresponding to BRC repeat 4; cited from earlier work
Excerpt: We explore the potential of single droplet anisotropy measurements for the study of structure–activity relationships for protein–protein interactions in nanoliter volumes. Specifically, we address the interactions of the BRC4 peptide, a reductionist model of the recombination mediator BRCA2, with mutants of an archaeal surrogate of the recombinase RAD51.[10] […] Inhibit ...

[1] = Retention of BRC4fl in droplets (leakage into oil phase); type: physicochemical; conditions: HFE 7500 with 1% w/v AZ2C fluorosurfactant, approx. 1 minute to detection point
Procedure: AZ2C fluoroLsurfactant (made inLhouse according to a previously published method).4 The time to reach the detection point (approx. 1 minute) was sufficient for significant leakage of BRC4fl from the droplet. Addition of additives such as BSA has been found effective in increasing the effective solubility of reagents.5 BSA was titrated using the same droplet titration technique up to 1.2%. The fluorescence intensity measured at the detection point was […]
increase retention of the fluorophore in the droplet. Anisotropy reached a steadyLstate value when BSA was present at concentrations above 0.2%. Although the linear increase of […]
presence of BSA concentrations above 1% made droplet formation more difficult, because of the increased viscosity of the aqueous phase and the formation of BSA vesicles. Therefore 1% BSA was chosen as a compromise between these effects and all experiments were […]
Figure S4. Influence of BSA concentration on the retention of BRC4fl within the droplet. (A) Intensity is linearly increasing with BSA concentration. (B) Fluorescence anisotropy converges towards a steadyLstate value above a threshold concentration of BSA

CC[C@H](C)[C@H](NC(=O)[C@H](CCCCN)NC(=O)[C@@H](NC(=O)[C@H](CCCCN)NC(=O)[C@H](CCCCN)NC(=O)CNC(=O)[C@H](CO)NC(=O)[C@H](C)NC(=O)[C@@H](NC(=O)[C@H](Cc1c[nH]cn1)NC(=O)[C@H](Cc1ccccc1)NC(=O)CNC(=O)[C@H](CC(C)C)NC(=O)[C@H](CC(C)C)NC(=O)[C@@H](NC(=O)[C@@H]1CCCN1C(=O)[C@H](CCC(=O)O)NC(=O)[C@H](CCCCN)NC(=O)[C@H](CSC1CC(=O)N(c2ccc3c(c2)C(=O)OC32c3ccc(O)cc3Oc3cc(O)ccc32)C1=O)NC(C)=O)[C@@H](C)O)[C@@H](C)O)C(C)C)C(=O)N[C@@H](C)C(=O)N[C@@H](CCCCN)C(=O)N[C@@H](CCC(=O)O)C(=O)N[C@@H](CO)C(=O)N[C@@H](CC(C)C)C(=O)N[C@@H](CC(=O)O)C(=O)N[C@@H](CCCCN)C(=O)N[C@H](C(=O)N[C@@H](CCCCN)C(=O)N[C@@H](CC(N)=O)C(=O)N[C@@H](CC(C)C)C(=O)N[C@@H](Cc1ccccc1)C(=O)N[C@@H](CC(=O)O)C(=O)N[C@@H](CCC(=O)O)C(=O)N[C@@H](CCCCN)C(=O)N[C@@H](CCC(=O)O)C(=O)N[C@@H](CCC(N)=O)C(N)=O)C(C)C (stereo partly drawn) [BRC4]
Kd (HumRadA18): 45 nM
RAD51 activity (RAD51): block RAD51 activity
leakage from droplet [1]: high propensity for leakage
